The record followed here is patent publication US9169285B2, “Methods for purifying steviol glycosides and uses of the same” (The Coca-Cola Company, priority 2011, dated 2015).

The subject of experiment [1] is panelists. The experiment can be described thus: Sensory properties of steviol glycosides in acidified water (pH 3.0) at 500 mg/L, 20 panelists. It is filed as in vivo, human. The conditions noted are these: 500 ppm (sucrose 10,000 ppm); for Overall evaluation: Satisfactory, number of panelists / Quality of sweet taste (comment) / Quality of sweet taste: number of panelists giving the comment: acidified water pH 3.0, 20 panelists; for Astringent taste: number of panelists detected the attribute / Bitter taste: number of panelists detected the attribute / Licorice taste: number of panelists detected the attribute / Sweet Aftertaste: number of panelists detected the attribute: acidified water pH 3.0 by phosphoric acid, 20 panelists. As to the method: The sensory properties of Reb X were evaluated in acidified water (pH 3.0 by phosphoric acid) at 500 mg/L concentration by 20 panelists.

The subject of experiment [2] is one experienced panelist. In words: Taste evaluation of Reb X against Reb A and Reb D, controlled multi-sip and swallow taste method. The experiment is classed as in vivo, human. Particulars: 500 ppm in citric buffer (pH 3.22). As to the method: The taste properties of a sample of Reb X were studied against Rebaudioside A (Reb A) and Rebaudioside D (Reb D) samples. Reb A was obtained from Cargill (lot #1040) and Reb-D was obtained from PureCircle (lot #Nov. 3, 2008).
The samples were prepared at 500 ppm for sweetness evaluation by adding moisture compensated mass into a 100 mL sample of carbon-treated water and citric buffer solutions.
Citric buffer was prepared by mixing 1.171 g/L citric acid, 0.275 g/L sodium citrate and 0.185 g/L sodium benzoate with carbon-treated water, with a final pH of 3.22. The mixtures were moderately stirred at room temperature. The Reb X sample was then evaluated against the two control Reb A and Reb D samples in water and citric buffer at room temperature (RT) and at 4° C. in an ice bath by one experienced panelist for any tasting quality determinations using the controlled, multi-sip and swallow taste method shown below:
1. Take first sip (˜1.8 mL) of control and swallow. Wait for 15-25 sec, then take second sip of control and wait for 15-25 sec.
2. Take first sip of the experimental sample, wait for 15-25 sec, then take second sip. Compare to second sip of control.
3. Repeat steps #1 and #2 for the third and fourth sips of the control and experimental samples to confirm the initial finding.

As to `C=C1C[C@@]23CC[C@H]4[C@@](C)(CCC[C@@]4(C)C(=O)O[C@@H]4O[C@H](CO)[C@@H](O)[C@H](O)[C@H]4O)[C@@H]2CC[C@]1(O[C@@H]1O[C@H](CO)[C@@H](O)[C@H](O[C@@H]2O[C@H](CO)[C@@H](O)[C@H](O)[C@H]2O)[C@H]1O[C@@H]1O[C@H](CO)[C@@H](O)[C@H](O)[C@H]1O)C3` [Reb A, Rebaudioside A], in experiment [1], the “Overall evaluation: Satisfactory, number of panelists” value (“Overall evaluation: Satisfactory” for short) was “(1 of 20)”; the “Quality of sweet taste (comment)” value is listed as “Bitter”; the “Quality of sweet taste: number of panelists giving the comment” value (shortened to “Quality … of panelists giving the comment”) is recorded as “(20 of 20)”; the “Astringent taste: number of panelists detected the attribute” value stood at 20. Moreover, in experiment [1], the “Bitter taste: number of panelists detected the attribute” value worked out at 20, the “Licorice taste: number of panelists detected the attribute” value was determined as 20 and the “Sweet Aftertaste: number of panelists detected the attribute” value was determined as 20. Also, the “Taste Properties” value in experiment [2] (4° C.) is reported as “more sweet”. Also, the “Taste Properties” value in experiment [2] (room temperature) is recorded as “Delayed sweetness onset, significant lingering sweet”.

Consider `OC[C@H]1O[C@@](CO)(O[C@H]2O[C@H](CO)[C@@H](O)[C@H](O)[C@H]2O)[C@@H](O)[C@@H]1O` [Sucrose], for which, in experiment [1], the “Overall evaluation: Satisfactory” value is given as “(20 of 20)”; the “Quality of sweet taste (comment)” value was “Clean”; the “Quality … of panelists giving the comment” value is given as 20 of 20.

Take `C=C1C[C@@]23CC[C@H]4[C@@](C)(CCC[C@@]4(C)C(=O)O[C@@H]4O[C@H](CO)[C@@H](O)[C@H](O)[C@H]4O[C@@H]4O[C@H](CO)[C@@H](O)[C@H](O)[C@H]4O)[C@@H]2CC[C@]1(O[C@@H]1O[C@H](CO)[C@@H](O)[C@H](O[C@@H]2O[C@H](CO)[C@@H](O)[C@H](O)[C@H]2O)[C@H]1O[C@@H]1O[C@H](CO)[C@@H](O)[C@H](O)[C@H]1O)C3` [Reb D, Rebaudioside D]: in experiment [1], the “Overall evaluation: Satisfactory” value was “(11 of 20)”; the “Quality of sweet taste (comment)” value is listed as “Clean”; the “Quality … of panelists giving the comment” value is reported as 9 of 20; the “Astringent taste: number of panelists detected the attribute” value came out at 3. In addition, in experiment [1], the “Bitter taste: number of panelists detected the attribute” value came to 3, the “Licorice taste: number of panelists detected the attribute” value is given as 2 and the “Sweet Aftertaste: number of panelists detected the attribute” value is recorded as 5. Besides, the “Taste Properties” value in experiment [2] (4° C.) was “more sweet”.

`C=C1C[C@@]23CC[C@H]4[C@@](C)(CCC[C@@]4(C)C(=O)O[C@@H]4O[C@H](CO)[C@@H](O)[C@H](O)[C@H]4O)[C@@H]2CC[C@]1(O[C@@H]1O[C@H](CO)[C@@H](O)[C@H](O)[C@H]1O[C@@H]1O[C@H](CO)[C@@H](O)[C@H](O)[C@H]1O)C3` [Stevioside]: in experiment [1], the “Quality of sweet taste (comment)” value is “Bitter” and the “Quality … of panelists giving the comment” value is given as “(20 of 20)”.
